Results reported in US12570655B2, “Cysteine covalent modifiers of AKT1 and uses thereof” (Terremoto Biosciences, Inc., priority 2023, dated 2026).

Experiments:
Format in all cases: cell-based
AKT1 E17K = target: T1, AKT1 E17K (Homo sapiens, UniProt P31749, E17K); assay: Live cell AKT1 E17K target engagement by NanoBRET competitive probe displacement; settings: HEK293 cells transfected with kinase-NanoLuciferase fusion, 2 h at 37° C.
T1 construct: expressed in transfected cells; host or cells: HEK293
Method in brief: (§1)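 IC50 reflects displacement of a fluorescent ATP-competitive tracer, dosed near its EC50, from kinase–NanoLuciferase fusions in live HEK293 cells. Cells were incubated with compound and tracer for 2 h at 37 °C, then E600/E460 BRET was read.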

[1] = system: LAPC4 prostate cancer cells; assay: Antiproliferative effects in LAPC4 cells (CellTiter Glo); settings: LAPC4 cells (AKT1 E17K allele), 72 h, read-out: LAPC4 proliferation IC50
Method in brief: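 Seed 1,000 cells/well in IMDM/12% FBS/1% P/S; add compound dilutions (DMSO); incubate 72 h; read intracellular ATP with CellTiter Glo; fit luminescence to log(inhibitor)-response Hill curve for IC50.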

AKT1 WT = target: T2, AKT1 WT (Homo sapiens, UniProt P31749); assay: Live cell AKT1 WT target engagement by NanoBRET competitive probe displacement; settings: HEK293 cells transfected with kinase-NanoLuciferase fusion, 2 h at 37° C.
T2 construct: expressed in transfected cells; host or cells: HEK293
Method in brief: as §1

AKT2 = target: T3, AKT2 (Homo sapiens, UniProt P31751); assay: Live cell AKT2 target engagement by NanoBRET competitive probe displacement; settings: HEK293 cells transfected with kinase-NanoLuciferase fusion, 2 h at 37° C.
T3 construct: expressed in transfected cells; host or cells: HEK293
Method in brief: as §1

T1 sequence (P31749 whole entry E17K, the tested form may be a part): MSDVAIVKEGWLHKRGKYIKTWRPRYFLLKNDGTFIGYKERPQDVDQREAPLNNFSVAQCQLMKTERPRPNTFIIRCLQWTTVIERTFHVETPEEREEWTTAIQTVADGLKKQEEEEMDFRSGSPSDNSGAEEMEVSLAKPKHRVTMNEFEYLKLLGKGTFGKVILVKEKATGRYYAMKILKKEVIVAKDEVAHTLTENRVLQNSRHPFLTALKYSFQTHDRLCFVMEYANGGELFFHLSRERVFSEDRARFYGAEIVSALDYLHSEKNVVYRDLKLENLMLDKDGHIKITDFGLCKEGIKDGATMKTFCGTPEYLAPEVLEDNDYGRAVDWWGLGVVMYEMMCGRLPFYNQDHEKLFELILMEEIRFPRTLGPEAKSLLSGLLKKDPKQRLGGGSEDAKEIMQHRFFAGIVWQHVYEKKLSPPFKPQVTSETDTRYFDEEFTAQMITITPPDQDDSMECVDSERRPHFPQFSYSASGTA
T3 sequence (P31751 whole entry, the tested form may be a part): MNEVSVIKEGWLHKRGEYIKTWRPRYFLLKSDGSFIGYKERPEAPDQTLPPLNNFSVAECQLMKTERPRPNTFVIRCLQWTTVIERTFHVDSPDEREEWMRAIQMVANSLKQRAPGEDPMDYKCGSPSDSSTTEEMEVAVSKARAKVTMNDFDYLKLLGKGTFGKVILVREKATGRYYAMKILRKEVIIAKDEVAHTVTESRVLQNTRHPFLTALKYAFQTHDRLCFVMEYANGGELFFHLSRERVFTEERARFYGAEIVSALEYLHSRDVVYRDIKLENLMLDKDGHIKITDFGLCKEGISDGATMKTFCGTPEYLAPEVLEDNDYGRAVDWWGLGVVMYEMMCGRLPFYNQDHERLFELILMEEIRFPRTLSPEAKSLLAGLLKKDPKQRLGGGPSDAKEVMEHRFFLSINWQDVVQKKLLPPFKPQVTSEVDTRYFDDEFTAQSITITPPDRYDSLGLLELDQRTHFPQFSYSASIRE
T2 sequence (P31749 whole entry, the tested form may be a part): as the sequence (P31749 whole entry E17K, the tested form may be a part) above, with K17E counted along it

SMILES: C=CC(=O)N1CCC(N[C@H]2CCc3cc(-n4c(-c5cccnc5N)nc5ccc(-n6cccn6)nc54)ccc32)C(F)C1 (single isomer, unassigned) [Example 104, 1-((3*,4*)-4-(((S)-5-(2-(2-aminopyridin-3-yl)-5-(1H-pyrazol-1-yl)-3H-imidazo[4,5-b]pyridin-3-yl)-2,3-dihydro-1H-inden-1-yl)amino)-3-fluoropiperidin-1-yl)prop-2-en-1-one]
- IC50 (AKT1 E17K): 0.0206 µM
- IC50 [1]: 0.12 µM
- IC50 (AKT1 WT): 0.00452 µM
- IC50 (AKT2): 0.0927 µM

SMILES: C=CC(=O)N1CCC(N[C@H]2CCc3cc(-n4c(-c5cccnc5N)nc5ccc(-n6cccn6)nc54)ccc32)C(F)C1 (single isomer, unassigned) [Example 105, 1-((3*,4*)-4-(((S)-5-(2-(2-aminopyridin-3-yl)-5-(1H-pyrazol-1-yl)-3H-imidazo[4,5-b]pyridin-3-yl)-2,3-dihydro-1H-inden-1-yl)amino)-3-fluoropiperidin-1-yl)prop-2-en-1-one]
- IC50 (AKT1 E17K): 0.0148 µM
- IC50 [1]: 0.053 µM
- IC50 (AKT1 WT): 0.00451 µM
- IC50 (AKT2): 0.0501 µM

SMILES: C=CC(=O)N1CCC(N[C@H]2CCc3cc(-n4c(-c5cccnc5N)nc5ccc(-n6cccn6)nc54)ccc32)C(F)C1 (single isomer, unassigned) [Example 106, 1-((3*,4*)-4-(((S)-5-(2-(2-aminopyridin-3-yl)-5-(1H-pyrazol-1-yl)-3H-imidazo[4,5-b]pyridin-3-yl)-2,3-dihydro-1H-inden-1-yl)amino)-3-fluoropiperidin-1-yl)prop-2-en-1-one]
- IC50 (AKT1 E17K): 0.0203 µM
- IC50 [1]: 0.093 µM
- IC50 (AKT1 WT): 0.00385 µM
- IC50 (AKT2): 0.12 µM

SMILES: C#CC1CC(N[C@H]2CCc3cc(-n4c(-c5cccnc5N)nc5ccc(-n6cccn6)nc54)ccc32)CCN1C(=O)C=C (single isomer, unassigned) [Example 111, 1-((2*,4*)-4-(((S)-5-(2-(2-aminopyridin-3-yl)-5-(1H-pyrazol-1-yl)-3H-imidazo[4,5-b]pyridin-3-yl)-2,3-dihydro-1H-inden-1-yl)amino)-2-ethynylpiperidin-1-yl)prop-2-en-1-one]
- IC50 (AKT1 E17K): 0.127 µM
- IC50 [1]: 0.343 µM
- IC50 (AKT1 WT): 0.0216 µM
- IC50 (AKT2): 0.143 µM

SMILES: C#CC1CC(N[C@H]2CCc3cc(-n4c(-c5cccnc5N)nc5ccc(-n6cccn6)nc54)ccc32)CCN1C(=O)C=C (single isomer, unassigned) [Example 112, 1-((2*,4*)-4-(((S)-5-(2-(2-aminopyridin-3-yl)-5-(1H-pyrazol-1-yl)-3H-imidazo[4,5-b]pyridin-3-yl)-2,3-dihydro-1H-inden-1-yl)amino)-2-ethynylpiperidin-1-yl)prop-2-en-1-one]
- IC50 (AKT1 E17K): 0.00806 µM
- IC50 [1]: 0.0118 µM
- IC50 (AKT1 WT): 0.00952 µM
- IC50 (AKT2): 0.0176 µM

SMILES: C#CC1CC(N[C@H]2CCc3cc(-n4c(-c5cccnc5N)nc5ccc(-n6cccn6)nc54)ccc32)CCN1C(=O)C=C (single isomer, unassigned) [Example 113, 1-((2*,4*)-4-(((S)-5-(2-(2-aminopyridin-3-yl)-5-(1H-pyrazol-1-yl)-3H-imidazo[4,5-b]pyridin-3-yl)-2,3-dihydro-1H-inden-1-yl)amino)-2-ethynylpiperidin-1-yl)prop-2-en-1-one]
- IC50 (AKT1 E17K): 0.00887 µM
- IC50 [1]: 0.0253 µM
- IC50 (AKT1 WT): 0.00733 µM
- IC50 (AKT2): 0.0509 µM

SMILES: C#CC1CC(N[C@H]2CCc3cc(-n4c(-c5cccnc5N)nc5ccc(-n6cccn6)nc54)ccc32)CCN1C(=O)C=C (single isomer, unassigned) [Example 114, 1-((2*,4*)-4-(((S)-5-(2-(2-aminopyridin-3-yl)-5-(1H-pyrazol-1-yl)-3H-imidazo[4,5-b]pyridin-3-yl)-2,3-dihydro-1H-inden-1-yl)amino)-2-ethynylpiperidin-1-yl)prop-2-en-1-one]
- IC50 (AKT1 E17K): 0.00834 µM
- IC50 [1]: 0.0125 µM
- IC50 (AKT1 WT): 0.00856 µM
- IC50 (AKT2): 0.0219 µM

SMILES: C=CC(=O)N1CCC(N[C@H]2CCc3cc(-n4c(-c5cccnc5N)nc5ccc(-n6cccn6)nc54)ccc32)C(OC)C1 (single isomer, unassigned) [Example 115, 1-((3*,4*)-4-(((S)-5-(2-(2-aminopyridin-3-yl)-5-(1H-pyrazol-1-yl)-3H-imidazo[4,5-b]pyridin-3-yl)-2,3-dihydro-1H-inden-1-yl)amino)-3-methoxypiperidin-1-yl)prop-2-en-1-one]
- IC50 (AKT1 E17K): 0.00926 µM
- IC50 [1]: 0.0407 µM
- IC50 (AKT1 WT): 0.00819 µM
- IC50 (AKT2): 0.0404 µM

SMILES: C=CC(=O)N1CCC(N[C@H]2CCc3cc(-n4c(-c5cccnc5N)nc5ccc(-n6cccn6)nc54)ccc32)C(OC)C1 (single isomer, unassigned) [Example 116, 1-((3*,4*)-4-(((S)-5-(2-(2-aminopyridin-3-yl)-5-(1H-pyrazol-1-yl)-3H-imidazo[4,5-b]pyridin-3-yl)-2,3-dihydro-1H-inden-1-yl)amino)-3-methoxypiperidin-1-yl)prop-2-en-1-one]
- IC50 (AKT1 E17K): 0.339 µM
- IC50 [1]: 0.422 µM
- IC50 (AKT1 WT): 0.0321 µM
- IC50 (AKT2): 0.942 µM

SMILES: C=CC(=O)N1CCC(N[C@H]2CCc3cc(-n4c(-c5cccnc5N)nc5ccc(-n6cccn6)nc54)ccc32)C(OC)C1 (single isomer, unassigned) [Example 117, 1-((3*,4*)-4-(((S)-5-(2-(2-aminopyridin-3-yl)-5-(1H-pyrazol-1-yl)-3H-imidazo[4,5-b]pyridin-3-yl)-2,3-dihydro-1H-inden-1-yl)amino)-3-methoxypiperidin-1-yl)prop-2-en-1-one]
- IC50 (AKT1 E17K): 0.482 µM
- IC50 [1]: 0.557 µM
- IC50 (AKT1 WT): 0.0416 µM
- IC50 (AKT2): 0.78 µM

SMILES: C=CC(=O)N1CCC(N[C@H]2CCc3cc(-n4c(-c5cccnc5N)nc5ccc(-n6cccn6)nc54)ccc32)C(OC)C1 (single isomer, unassigned) [Example 118, 1-((3*,4*)-4-(((S)-5-(2-(2-aminopyridin-3-yl)-5-(1H-pyrazol-1-yl)-3H-imidazo[4,5-b]pyridin-3-yl)-2,3-dihydro-1H-inden-1-yl)amino)-3-methoxypiperidin-1-yl)prop-2-en-1-one]
- IC50 (AKT1 E17K): 0.042 µM
- IC50 [1]: 0.167 µM
- IC50 (AKT1 WT): 0.0213 µM
- IC50 (AKT2): 0.32 µM

SMILES: C=CC(=O)N1CCCC(N[C@H]2CCc3cc(-n4c(-c5cccnc5N)nc5ccc(-n6cccn6)nc54)ccc32)C1 (single isomer, unassigned) [Example 124, 1-[(3*)-3-{[(1S)-5-[2-(2-aminopyridin-3-yl)-5-(pyrazol-1-yl)imidazo[4,5-b]pyridin-3-yl]-2,3-dihydro-1H-inden-1-yl]amino}piperidin-1-yl]prop-2-en-1-one]
- IC50 (AKT1 E17K): 0.0992 µM
- IC50 [1]: 4.86 µM
- IC50 (AKT1 WT): 0.0541 µM
- IC50 (AKT2): 1.12 µM

SMILES: C=CC(=O)N1CCCC(N[C@H]2CCc3cc(-n4c(-c5cccnc5N)nc5ccc(-n6cccn6)nc54)ccc32)C1 (single isomer, unassigned) [Example 125, 1-[(3*)-3-{[(1S)-5-[2-(2-aminopyridin-3-yl)-5-(pyrazol-1-yl)imidazo[4,5-b]pyridin-3-yl]-2,3-dihydro-1H-inden-1-yl]amino}piperidin-1-yl]prop-2-en-1-one]
- IC50 (AKT1 E17K): 0.914 µM
- IC50 [1]: 2.11 µM
- IC50 (AKT1 WT): 0.292 µM
- IC50 (AKT2): 3.28 µM

SMILES: C=CC(=O)N1CCC(N[C@H]2CCc3cc(-n4c(-c5cccnc5N)nc5ccc(-n6cccn6)nc54)ccc32)c2ccccc21 (single isomer, unassigned) [Example 126, 1-[(4*)-4-{[(1S)-5-[2-(2-aminopyridin-3-yl)-5-(pyrazol-1-yl)imidazo[4,5-b]pyridin-3-yl]-2,3-dihydro-1H-inden-1-yl]amino}-3,4-dihydro-2H-quinolin-1-yl]prop-2-en-1-one]
- IC50 (AKT1 E17K): 0.671 µM
- IC50 [1]: 5.05 µM
- IC50 (AKT1 WT): > 1 µM
- IC50 (AKT2): 8.57 µM

SMILES: C=CC(=O)N1CCC(N[C@H]2CCc3cc(-n4c(-c5cccnc5N)nc5ccc(-n6cccn6)nc54)ccc32)c2ccccc21 (single isomer, unassigned) [Example 127, 1-[(4*)-4-{[(1S)-5-[2-(2-aminopyridin-3-yl)-5-(pyrazol-1-yl)imidazo[4,5-b]pyridin-3-yl]-2,3-dihydro-1H-inden-1-yl]amino}-3,4-dihydro-2H-quinolin-1-yl]prop-2-en-1-one]
- IC50 (AKT1 E17K): 0.00817 µM
- IC50 [1]: 0.0371 µM
- IC50 (AKT1 WT): 0.00906 µM
- IC50 (AKT2): 0.0369 µM

SMILES: C=CC(=O)N1CCC(N[C@H]2CCc3cc(-n4c(-c5cccnc5N)nc5ccc(-n6cccn6)nc54)ccc32)C[C@H]1COC (single isomer, unassigned) [Example 129, 1-[(2S,4*)-4-{[(1S)-5-[2-(2-aminopyridin-3-yl)-5-(pyrazol-1-yl)imidazo[4,5-b]pyridin-3-yl]-2,3-dihydro-1H-inden-1-yl]amino}-2-(methoxymethyl)piperidin-1-yl]prop-2-en-1-one]
- IC50 (AKT1 E17K): > 1 µM
- IC50 [1]: > 10 µM
- IC50 (AKT1 WT): 0.115 µM
- IC50 (AKT2): 2.72 µM

SMILES: C=CC(=O)N1CCC(N[C@H]2CCc3cc(-n4c(-c5cccnc5N)nc5ccc(-n6cccn6)nc54)ccc32)C[C@H]1COC (single isomer, unassigned) [Example 130, 1-[(2S,4*)-4-{[(1S)-5-[2-(2-aminopyridin-3-yl)-5-(pyrazol-1-yl)imidazo[4,5-b]pyridin-3-yl]-2,3-dihydro-1H-inden-1-yl]amino}-2-(methoxymethyl)piperidin-1-yl]prop-2-en-1-one]
- IC50 (AKT1 E17K): 0.0764 µM
- IC50 [1]: 0.174 µM
- IC50 (AKT1 WT): 0.0265 µM
- IC50 (AKT2): 0.672 µM
